This note sets out measurements from patent US20260184690A1, “Substituted Heterocyclic Compounds” (Bristol-Myers Squibb Company, priority 2022, published 2026).

The subject of series [1] is IFNα-induced pSTAT5 in human whole blood (CD3 positive population). The series is described as follows: IFNα-induced STAT phosphorylation in human whole blood. Format: cell-based. The note with it: 1 h compound incubation, 1000 U/mL IFNα A/D for 15 min, CD3+ gate, read-out: Human Whole blood IFNa pSTAT5 IC50. How it is done: After an hour long incubation with compound, human whole blood (drawn with ACD-A as anticoagulant) was stimulated with 1000 U/mL recombinant human IFNα A/D (R&D Systems 11200-2) for 15 min. The stimulation was stopped by adding Fix/Lyse buffer (BD 558049). Cells were stained with a CD3 FITC antibody (BD 555916), washed, and permeabilized on ice using Perm III buffer (BD 558050). Cells were then stained with an Alexa-Fluor 647 pSTAT5 (pY694) antibody (BD 612599) for 60 min prior to analysis on the iQue Plus. The amount of pSTAT5 expression was quantitated by median fluorescence intensity after gating on the CD3 positive population.

The test system of series [2] is Caco-2 cells. The series is described as follows: Bidirectional permeability assay in Caco-2 cells. Particulars: 3 μM, pH 7.4, 0.5% BSA, 2 hours at 37° C.; for Caco-2 AB: apical-to-basolateral Pc. (Caco-2 monolayers are a common model of the intestinal barrier.)
Series [3] relates to Caco-2 cells. Particulars: human, Caco-2, 2 h, 3 μM, pH 7.4.
A short description of a further series: in vitro. Particulars: human, Caco-2, pH 7.4.

Like-named read-outs stand apart in the source and are kept apart here.

What is called IC50 is the concentration needed to halve the response being measured. As to `CNC(=O)c1cnc(N2CCN(C(C)C)C2=O)cc1Nc1nccc(-c2cnn(C)n2)c1OC` [Example 2, 4-{[3-methoxy-4-(2-methyl-2H-1,2,3-triazol-4-yl)pyridin-2-yl]amino}-N-(^2H3)methyl-6-[2-oxo-3-(propan-2-yl)imidazolidin-1-yl]pyridine-3-carboxamide], in series [1], the half-inhibitory concentration (IC50) was 26 nM.

As to `[2H]C([2H])([2H])NC(=O)c1cnc(N2CCN(C(C)C)C2=O)cc1Nc1nccc(-c2cnn(C)n2)c1OC` [Example 2, 4-{[3-methoxy-4-(2-methyl-2H-1,2,3-triazol-4-yl)pyridin-2-yl]amino}-N-(^2H3)methyl-6-[2-oxo-3-(propan-2-yl)imidazolidin-1-yl]pyridine-3-carboxamide], in the series with Caco-2 cells [2], the Caco-2 efflux ratio is recorded as 1.4 and the “Caco-2 AB” value came to 233 nm/s. On to `CNC(=O)c1cnc(N2CCN(C(C)C)C2=O)cc1Nc1cccc(-c2cnn(C)n2)c1OC` [Example 3, 4-{[2-methoxy-3-(2-methyl-2H-1,2,3-triazol-4-yl)phenyl]amino}-N-(^2H3)methyl-6-[2-oxo-3-(propan-2-yl)imidazolidin-1-yl]pyridine-3-carboxamide], for which, in series [1], the IC50 was 77 nM. With `[2H]C([2H])([2H])NC(=O)c1cnc(N2CCN(C(C)C)C2=O)cc1Nc1cccc(-c2cnn(C)n2)c1OC` [Example 3, 4-{[2-methoxy-3-(2-methyl-2H-1,2,3-triazol-4-yl)phenyl]amino}-N-(^2H3)methyl-6-[2-oxo-3-(propan-2-yl)imidazolidin-1-yl]pyridine-3-carboxamide], in the series on Caco-2 cells [2], the Caco-2 efflux ratio worked out at 0.7 and the “Caco-2 AB” value was found to be 287 nm/s. On to `CNC(=O)c1nnc(N2CCN(C3CC3)C2=O)cc1Nc1nccc(-c2cnn(C)n2)c1OC` [Example 4, 6-(3-cyclopropyl-2-oxoimidazolidin-1-yl)-4-{[3-methoxy-4-(2-methyl-2H-1,2,3-triazol-4-yl)pyridin-2-yl]amino}-N-(^2H3)methylpyridazine-3-carboxamide], for which the concentration for half-maximal inhibition (IC50) in series [1] was determined as 26 nM. As for `[2H]C([2H])([2H])NC(=O)c1nnc(N2CCN(C3CC3)C2=O)cc1Nc1nccc(-c2cnn(C)n2)c1OC` [Example 4, 6-(3-cyclopropyl-2-oxoimidazolidin-1-yl)-4-{[3-methoxy-4-(2-methyl-2H-1,2,3-triazol-4-yl)pyridin-2-yl]amino}-N-(^2H3)methylpyridazine-3-carboxamide], the “Caco-2 AB” value in the series with Caco-2 cells [3] amounted to 576 nm/s. As for `CNC(=O)c1nnc(N2CCN(C3CC3)C2=O)cc1Nc1cccc(-c2cnn(C)n2)c1OC` [Example 5, 6-(3-cyclopropyl-2-oxoimidazolidin-1-yl)-4-{[2-methoxy-3-(2-methyl-2H-1,2,3-triazol-4-yl)phenyl]amino}-N-(^2H3)methylpyridazine-3-carboxamide], in series [1], the IC50 turned out to be 95 nM.

In the case of `[2H]C([2H])([2H])NC(=O)c1nnc(N2CCN(C3CC3)C2=O)cc1Nc1cccc(-c2cnn(C)n2)c1OC` [Example 5, 6-(3-cyclopropyl-2-oxoimidazolidin-1-yl)-4-{[2-methoxy-3-(2-methyl-2H-1,2,3-triazol-4-yl)phenyl]amino}-N-(^2H3)methylpyridazine-3-carboxamide], the “Caco-2 AB” value in the series with Caco-2 cells [3] was 361 nm/s. For the compound `CNC(=O)c1cnc(N2CCN(C(F)(F)F)C2=O)cc1Nc1cccc(-c2cnn(C)n2)c1OC` [Example 6, 4-{[2-methoxy-3-(2-methyl-2H-1,2,3-triazol-4-yl)phenyl]amino}-N-(^2H3)methyl-6-[2-oxo-3-(trifluoromethyl)imidazolidin-1-yl]pyridine-3-carboxamide], in series [1], the concentration for half-maximal inhibition (IC50) amounted to 800 nM. On to `[2H]C([2H])([2H])NC(=O)c1cnc(N2CCN(C(F)(F)F)C2=O)cc1Nc1cccc(-c2cnn(C)n2)c1OC` [Example 6, 4-{[2-methoxy-3-(2-methyl-2H-1,2,3-triazol-4-yl)phenyl]amino}-N-(^2H3)methyl-6-[2-oxo-3-(trifluoromethyl)imidazolidin-1-yl]pyridine-3-carboxamide], for which, in the series on Caco-2 cells [2], the Caco-2 efflux ratio is reported as 0.6 and the “Caco-2 AB” value came to 118 nm/s. Consider `CNC(=O)c1nnc(N2CCN(C3CCC3)C2=O)cc1Nc1nccc(-c2cnn(C)n2)c1OC` [Example 7, 6-(3-cyclobutyl-2-oxoimidazolidin-1-yl)-4-{[3-methoxy-4-(2-methyl-2H-1,2,3-triazol-4-yl)pyridin-2-yl]amino}-N-(^2H3)methylpyridazine-3-carboxamide], for which the IC50 in series [1] amounted to 47 nM. For `[2H]C([2H])([2H])NC(=O)c1nnc(N2CCN(C3CCC3)C2=O)cc1Nc1nccc(-c2cnn(C)n2)c1OC` [Example 7, 6-(3-cyclobutyl-2-oxoimidazolidin-1-yl)-4-{[3-methoxy-4-(2-methyl-2H-1,2,3-triazol-4-yl)pyridin-2-yl]amino}-N-(^2H3)methylpyridazine-3-carboxamide], the “Caco-2 AB” value in the series with Caco-2 cells [3] worked out at 139 nm/s.

Usually Papp A→B stands for the apparent permeability from the apical to the basolateral side of a cell layer. Read a high Papp A→B as fast passage. By efflux ratio is commonly meant a quotient of directional permeabilities that is used to spot active efflux. `[2H]C([2H])([2H])NC(=O)c1nnc(N2CCN(C(C)C)C2=O)cc1Nc1nc(C)cc(-c2cnn(C)n2)c1OC` [Example 8, 6-(3-isopropyl-2-oxoimidazolidin-1-yl)-4-((3-methoxy-6-methyl-4-(2-methyl-2H-1,2,3-triazol-4-yl)pyridin-2-yl)amino)-N-(methyl-d3)pyridazine-3-carboxamide]: in series [1], the concentration for half-maximal inhibition (IC50) was determined as 383 nM. Also, in the series “in vitro”, the Papp A→B at 2 h, 3 μM came out at 15.4 ×10⁻⁶ cm/s and the efflux ratio at 2 h, 3 μM is 0.3. For `[2H]C([2H])([2H])NC(=O)c1nnc(N2CCN(C3CC3)C2=O)cc1Nc1nc(C)cc(-c2cnn(C)n2)c1OC` [Example 9, 6-(3-cyclopropyl-2-oxoimidazolidin-1-yl)-4-((3-methoxy-6-methyl-4-(2-methyl-2H-1,2,3-triazol-4-yl)pyridin-2-yl)amino)-N-(methyl-d3)pyridazine-3-carboxamide], in that order: 141 nM, 13.7 ×10⁻⁶ cm/s and 0.2.
